Assay results: patent publication US20050287114A1, “Water-soluble polymeric bone-targeting drug delivery system” (University of Utah Research Foundation, priority 2003, published 2005)

Legend:
[1] = water solubility of lyophilized product; format: physicochemical
Method: TC was first transformed into anhydrotetracycline; an amino group was then introduced into the D ring. Stoel, L. et al.(1976) J. Pharm. Sci. 65, 1794-1799; Menachery, M. D. & Cava, M. P. (1984) Can. J. Chem. 62, 2583-2584. Because of the low activity of the aromatic amine, a glycine was coupled to the D ring of the TC molecule in order to introduce a more reactive primary amine by the following procedure. Boc-glycine (192.7 mg, 1.1 mmol), 9-NH2-ATC (514 mg, 1 mmol) and methyl morpholine (MM, 220 μL, 2 mmol) were dissolved in DMF (8 mL) and stirred at 0° C. for 1 h. DCC (227 mg, 1.1 mmol, in 2 mL DCM) was added to the solution and stirred for 1 h. The temperature of the solution was then raised to R.T. and stirred overnight. The resulting suspension was filtered. The solid (product and DCU) was washed three times with ethyl acetate and dried under vacuum. The Boc protection was removed with TFA. DCU was removed to yield 360 mg of 9-Gly-ATC (lyophilized), which is water-soluble.

[2] = in vitro bone-targeting capacity: binding of conjugates to hydroxyapatite; conditions: conjugate 1 mg/mL in phosphate buffered saline, 5 mg HA, 1 h at R.T., UV absorbance of supernatant
Method: Conjugates were dissolved in phosphate buffered saline to give a concentration of 1 mg/mL. The conjugate solution (100 μL) and 100 μL of the same buffer were incubated with 5 mg of hydroxyapatite (HA, Bio-Gel HTP, DNA grade; BIO-RAD, Hercules, Calif.) for 1 h at R.T. The solution was then centrifuged. The UV absorbance at certain wavelengths (FITC, 490 nm; 9-Gly-ATC, 450 nm) of the supernatant was monitored with an ELISA plate reader. Background correction was applied. The data presented is the average of three samples. The binding efficiency is expressed as the percentage of conjugates bound to HA (FIG. 4).

SMILES: Cc1c2c(c(O)c3c(O)c(NC(=O)CN)ccc13)C(=O)C1(O)C(=O)C(C(N)=O)=C(O)C(N(C)C)C1C2 (centres unmarked) [9-Gly-ATC, N-(9-aminoanhydrotetracycline)glycyl amide]
- water solubility [1]: water-soluble
- binding to HA (percentage of conjugates bound to HA) [2]: slightly lower values
